Values quoted from earlier work, collected in patent US7442709B2, “N3-substituted imidazopyridine c-Kit inhibitors” (OSI Pharmaceuticals, Inc., priority 2003, dated 2008).
Counter-ions that a name gives are not always drawn.

Columns and labels:
[1] = system: MO7e human leukemia cells
[2] = system: MO7e human leukemia cells; settings: GM-CSF stimulation

Cc1ccc(NC(=O)c2ccc(CN3CCN(C)CC3)cc2)cc1Nc1nccc(-c2cccnc2)n1 [Gleevec, imatinib mesylate]
Kit ligand-stimulated growth of MO7e human leukemia cells ([1]; Kit ligand stimulation): inhibited
Apoptosis in MO7e human leukemia cells ([1]; under Kit ligand-stimulated growth conditions): induces apoptosis
GM-CSF stimulated growth of MO7e human leukemia cells [2]: not affected
